{"source": "patent EP0118120A2", "about": "“1,4-Dihydropyridine compound” (priority 1983, dated 1984)", "key": {"SLC-Wistar male rats": {"test_system": "SLC-Wistar male rats", "assay": "Acute toxicity, oral LD50 in rats (Example 29)", "format": "in vivo", "conditions": "male rats 5 weeks old, 100 to 125 g, observed for one week, 10080 min", "source_text": "(§1) Acute toxicity of the compounds according to the present invention"}, "[1]": {"test_system": "liver disorder induced by carbon tetrachloride", "assay": "Effect on liver disorder induced by carbon tetrachloride in rats, serum GOT, GPT, AlP, bilirubin (Example 26)", "format": "in vivo, SLC-Wistar male rats", "conditions": "rats 9 weeks old", "protocol": "(§2) Effect of the compounds according to the present invention on liver disorder induced by carbon tetrachloride\n(§3) The effects of the sample compounds to be tested on hepatic disorder were evaluated by determining the levels of GOT, GPT, AlP, and bilirubin, which are known as an indicator of hepatic disorder, in serum, after administering carbon tetrachloride and the sample compounds to SLC-Wistar male rats (9 weeks old and body weight of 210 to 250 g in Tables 1, 3, and 4, and 10 weeks old and body weight of 230 to 260 g in Table 2) as follows.\n(§4) Five rats were used in each test group. The sample compound (i.e., each compound listed below) was suspended at a concentration of 40 mg/ml in a 0.1% aqueous solution of Tween-80 (i.e., nonionic surfactant available from Atlas Powder Co., Ltd.). The resultant suspension was orally administered at a dose of 200 mg/kg each at 25 hours and 1 hour before the administration of carbon tetrachloride, except for the control group. For the control group to which only carbon tetrachloride was administered in the evaluation test, a 0.1% aqueous Tween-80 was orally administered at a dose of 5 ml/kg in the same manner.\n(§5) Carbon tetrachloride was intraperiotoneally administered as a 10% olive oil solution at a dose of 5 ml/kg (0.5 ml/kg in terms of CC14) one hour after the final administration of the sample compound. For the control (normal) group, olive oil was intraperitoneally administered in the same manner at a dose of 5 ml/kg.\n(§6) Blood samples were collected from the carotid artery under pentobarbital anesthesia, 24 hours after the administration of carbon tetrachloride. The rats were fasted for 18 to 22 hours before collecting the blood samples.\n(§7) The determination of GOT and GPT in serum was carried out according to a UV method, the determination of AlP was carried cut according to Bessy-Lowry method, and the determination of bilirubin was carried out according to a diazo method."}, "[2]": {"assay": "Acute toxicity, oral LD50 in rats (Example 29)", "format": "in vivo", "conditions": "rat, in vivo, male rats 5 weeks old, 100 to 125 g, observed for one week", "source_text": "as §1"}, "[3]": {"assay": "Acute toxicity, oral LD50 in rats (Example 28)", "conditions": "rat, in vivo, male rats 5 weeks old, 130 to 150 g, observed for one week", "source_text": "as §1"}, "[4]": {"test_system": "liver disorder induced by carbon tetrachloride", "assay": "Effect on liver disorder induced by carbon tetrachloride in rats, repeat with 8 weeks old rats (Example 27)", "format": "in vivo, SLC-Wistar male rats", "conditions": "Table 5, serum 24 hours after CCl4, 200 mg/kg orally x2, rats 8 weeks old; for GOT: 170 to 210 g, CCl4 only 27875 ± 3628, normal 78 ± 3; for Bilirubin: CCl4 only 0.55 ± 0.16, normal 0.10 ± 0.00; for AlP: CCl4 only 41.3 ± 2.5, normal 25.7 ± 0.4; for GPT: CCl4 only 12984 ± 1465, normal 30 ± 3", "protocol": "as §3, §4, §5, §6, §7, §2\nThe evaluation tests of Example 26 were repeated except that SLC-Wistar male rats (8 weeks old and body weight of 170 to 210 g) were used."}, "[5]": {"conditions": "Table 3, serum 24 hours after CCl4, 200 mg/kg orally x2, CCl4 only 0.38 ± 0.06, normal 0.22 ± 0.04"}, "[6]": {"conditions": "Table 3, serum 24 hours after CCl4, 200 mg/kg orally x2, CCl4 only 34.4 ± 2.6, normal 27.0 ± 0.5"}, "[7]": {"conditions": "Table 3, serum 24 hours after CCl4, 200 mg/kg orally x2, CCl4 only 9188 ± 1815, normal 30 ± 2"}, "[8]": {"conditions": "Table 3, serum 24 hours after CCl4, 200 mg/kg orally x2, CCl4 only 13189 ± 2205, normal 81 ± 3"}, "[9]": {"conditions": "Table 4, serum 24 hours after CCl4, 200 mg/kg orally x2, CCl4 only 0.38 ± 0.04, normal 0.10 ± 0.00"}, "[10]": {"conditions": "Table 4, serum 24 hours after CCl4, 200 mg/kg orally x2, CCl4 only 35.0 ± 2.0, normal 24.4 ± 0.7"}, "[11]": {"conditions": "Table 4, serum 24 hours after CCl4, 200 mg/kg orally x2, CCl4 only 10523 ± 2313, normal 31 ± 3"}, "[12]": {"conditions": "Table 4, serum 24 hours after CCl4, 200 mg/kg orally x2, CCl4 only 17704 ± 4140, normal 76 ± 4"}}}
{"compound": "3,5-dicyano-4-[2-(5,6-dihydro-p--dioxinyl)]-2,6-dimethyl-1,4-dihvdropyridine [Sample Compound A]", "values": [{"measurement": "LD50", "setting": "SLC-Wistar male rats", "value": "more than 1000 mg/kg"}, {"measurement": "GOT", "setting": "[1]; Table 1, serum 24 hours after CCl4 0.5 ml/kg i.p., compound 200 mg/kg orally 25 hours and 1 hour before CCl4, CCl4 only 17327 ± 2336, normal 76 ± 1", "value": "3874 ± 792", "unit": "K.U."}, {"measurement": "Bilirubin", "setting": "[1]; Table 1, serum 24 hours after CCl4, 200 mg/kg orally x2, CCl4 only 0.62 ± 0.30, normal 0.10 ± 0.00", "value": "0.24 ± 0.02", "unit": "mg/dL"}, {"measurement": "AlP", "setting": "[1]; Table 1, serum 24 hours after CCl4, 200 mg/kg orally x2, CCl4 only 35.5 ± 2.5, normal 23.6 ± 0.4", "value": "31.4 ± 0.9", "unit": "K-AU."}, {"measurement": "GPT", "setting": "[1]; Table 1, serum 24 hours after CCl4, 200 mg/kg orally x2, CCl4 only 10496 ± 1221, normal 31 ± 2", "value": "2380 ± 472", "unit": "K.U."}]}
{"compound": "COCOC(=O)C1=C(C)NC(C)=C(C(=O)OCOC)C1C1=COCCO1", "note": "[Sample Compound F, bis(methoxymethyl) 4-[2-(5,6-dihydro-p-dioxinyl)]-2,6-dimethyl-1,4-dihydrcpyridine-3,5-dicarboxylate]", "values": [{"measurement": "LD50 at 168 h", "setting": "[2]", "value": "> 2000", "unit": "mg/kg"}, {"measurement": "Bilirubin", "setting": "[1]; [5]", "value": "0.22 ± 0.05", "unit": "mg/dL"}, {"measurement": "AlP", "setting": "[1]; [6]", "value": "26.4 ± 1.0", "unit": "K-AU."}, {"measurement": "GPT", "setting": "[1]; [7]", "value": "274 ± 99", "unit": "K.U."}, {"measurement": "GOT", "setting": "[1]; [8]", "value": "432 ± 107", "unit": "K.U."}]}
{"compound": "COCCOC(=O)C1=C(C)NC(C)=C(C(=O)OCCOC)C1C1=COCCO1", "note": "[Sample Compound J, bis (2-methoxyethyl) 4-[2-(5,6-dihydro-p-dioxinyl)]-2,6-dimethyl-1,4-dihydropyridine-3,5-dicarboxylate]", "values": [{"measurement": "Bilirubin", "setting": "[1]; [9]", "value": "0.18 ± 0.03", "unit": "mg/dL"}, {"measurement": "AlP", "setting": "[1]; [10]", "value": "27.4 ± 2.6", "unit": "K-AU."}, {"measurement": "GPT", "setting": "[1]; [11]", "value": "626 ± 179", "unit": "K.U."}, {"measurement": "GOT", "setting": "[1]; [12]", "value": "807 ± 211", "unit": "K.U."}, {"measurement": "LD50 at 168 h", "setting": "[3]", "value": "> 1000", "unit": "mg/kg"}]}
{"compound": "CC(=O)C1=C(C)NC(C)=C(C(C)=O)C1C1=COCCO1", "note": "[Sample Compound L, 3,5-diacetyl-4-[2-(5,6-dihydro-p-dioxinyl)]-2,6-dimethyl-1,4-dihydropyridine]", "values": [{"measurement": "Bilirubin", "setting": "[1]; [9]", "value": "0.22 ± 0.02", "unit": "mg/dL"}, {"measurement": "AlP", "setting": "[1]; [10]", "value": "34.2 ± 1.5", "unit": "K-AU."}, {"measurement": "GPT", "setting": "[1]; [11]", "value": "285 ± 96", "unit": "K.U."}, {"measurement": "GOT", "setting": "[1]; [12]", "value": "429 ± 113", "unit": "K.U."}, {"measurement": "LD50 at 168 h", "setting": "[3]", "value": "> 1000", "unit": "mg/kg"}]}
{"compound": "CC(=O)C1=C(C)NC(C)=C(C(C)=O)C1C1=C(C)OC(C)CO1", "note": "(centres unmarked) [Sample Compound O, 3,5-diacetyl-2,6-dimethyl-4-2-(3,5-dimethyl-5,6-dihydro-p-dioxinyl) -1,4-dihydro pyridine]", "values": [{"measurement": "LD50 at 168 h", "setting": "[2]", "value": "> 2000", "unit": "mg/kg"}, {"measurement": "Bilirubin", "setting": "[1]; [5]", "value": "0.26 ± 0.02", "unit": "mg/dL"}, {"measurement": "AlP", "setting": "[1]; [6]", "value": "37.2 ± 1.6", "unit": "K-AU."}, {"measurement": "GPT", "setting": "[1]; [7]", "value": "410 ± 64", "unit": "K.U."}, {"measurement": "GOT", "setting": "[1]; [8]", "value": "565 ± 98", "unit": "K.U."}]}
{"compound": "COCN1C(C)=C(C(C)=O)C(C2=COCCO2)C(C(C)=O)=C1C", "note": "[Sample Compound R, 3,5-diacetyl-4-[2-(5,6-dihydro-p-dioxinyl)]-1-methoxymethyl-2,6-dimethyl-1,4-dihydropyridine]", "values": [{"measurement": "GOT", "setting": "[4]", "value": "425 ± 124", "unit": "K.U."}, {"measurement": "Bilirubin", "setting": "[4]", "value": "0.16 ± 0.02", "unit": "mg/dL"}, {"measurement": "AlP", "setting": "[4]", "value": "31.4 ± 1.6", "unit": "K-AU."}, {"measurement": "GPT", "setting": "[4]", "value": "260 ± 98", "unit": "K.U."}, {"measurement": "LD50 at 168 h", "setting": "[2]", "value": "> 1500", "unit": "mg/kg"}]}
{"compound": "COCC1=C(C2C(C(C)=O)=C(C)NC(C)=C2C(C)=O)OCCO1", "note": "[Sample Compound V, 3,5-diacetyl-4-2-(3-methoxy-methvl-5,6-dihydro-p-dioxinyl) -2,6-dimethyl-l,4-dihydropyridine]", "values": [{"measurement": "GOT", "setting": "[4]", "value": "2036 ± 677", "unit": "K.U."}, {"measurement": "Bilirubin", "setting": "[4]", "value": "0.15 ± 0.03", "unit": "mg/dL"}, {"measurement": "AlP", "setting": "[4]", "value": "35.6 ± 1.4", "unit": "K-AU."}, {"measurement": "GPT", "setting": "[4]", "value": "1251 ± 414", "unit": "K.U."}, {"measurement": "LD50 at 168 h", "setting": "[2]", "value": "> 2000", "unit": "mg/kg"}]}
